Measurements as given in patent US20190282600A1, “COMBINATION THERAPIES TARGETING TERT DEPENDENCY FOR CANCER THERAPY” (The Wistar Institute of Anatomy and Biology, priority 2018, published 2019).

Tests used:
[1] = tested on: NRAS-WT/BRAF-WT melanoma cells; test: Cell death by Annexin V/PI flow cytometry; assay type: cell-based, Human; conditions: 1 μM 6-thio-dG, 5 μM Gam, single agents or in combination
Procedure: FIGS. 5a to 5e provide bar graphs showing that combination treatment with 6-Thio-dG and Gamitrinib (Gam) triggers death selectively in NRAS mutant tumor cells. NRAS-WT/BRAF-WT melanoma cells (FIG. 5a), NRAS-WT/BRAF-mut melanoma cells (FIG. 5b), NRAS mutant neuroblastoma cells (FIG. 5c), NRAS-WT/KRAS-mutant colon cancer cells (FIG. 5d), and NRAS-WT/KRAS-mutant lung cancer cells were treated with 1 μM 6-thio-dG for 5 days (FIG. 5e). At day 5, culture medium was replaced and cells treated with 1 μM 6-thio-dG plus 5 μM Gam for two more days. Cells were stained with Annexin V and PI and percent cell death was determined by FACS. Data represent average of three independent experiments +/−SEM; p values were calculated using un-paired Student's t-test; *p<0.05; **p<0.001.
(§1) Cells were seeded in 96-well plates and treated with drugs. After 6 days, cell viability was assessed following 6h incubation with […] Alamar Blue (ThermoFisherScientific, Philadelphia, Pa.) by measuring fluorescence using an EnVision Xcite Multilabel plate reader (Perkin Elmer, Waltham, Mass.). Cell death was determined by flow cytometry using PSVue-643 (Molecular Targeting Technologies) or Annexin V (640919, Biolegend, San Diego, Calif.) and Propidium Iodide (Sigma) staining. Samples were analyzed using a BD LSRII flow cytometer (BD Biosciences, San Jose, Calif.).

[2] = tested on: detoxifying enzymes SOD2, GPX1 and UCP2; test: mRNA levels of antioxidant enzymes by qRT-PCR; assay type: cell-based, Human; conditions: NRAS mutant melanoma cells, 1 μM 6-thio-dG for 7 days
Procedure: FIGS. 3a to 3g provides graphs showing that telomere dysfunction enhances oxidative stress leading to upregulation of an antioxidant program. […] Mitochondrial superoxide production was measured by MitoSox Red fluorescence (FIGS. 3c, and 3d) and expressed as fluorescence relative to vector or DMSO controls. […] FIG. 3f provides a bar graph showing that SOD2 was silenced using shRNA. Transduced M93-047 cells were treated with DMSO or 1 μM of 6-thio-dG and cell death was assessed by Annexin V/PI straining. As presented in FIG. 3g, M93-047 cells were transduced with a SOD2 lentiviral construct or empty vector control (pLX304). Transduced cells were treated with increasing doses (1, 2.5 and 5 μM) of 6-thio-dG for 7 days and cell death was assessed. Data represent average from three independent experiments ±SEM. *p<0.05; **p<0.01; ***p<0.005 in unpaired Student's t-test.
Total RNA (1 μg) was reverse transcribed using Maxima First-Strand cDNA synthesis kit (Thermo Scientific, Waltham, Mass.). Fast SYBR Green Master Mix (Applied Biosystems, Waltham, Mass.) was used with 100 ng cDNA template and 250 nM primers for the evaluation of target gene expression. Amplification was performed in triplicate using ABI PRISM 7500 Fast RT PCR System (Applied Biosystems, Waltham, Mass.) and expression of mRNA was assessed using the […].

[3] = tested on: NRAS mutant melanoma cells; test: Telomere length assay (TRF Southern blotting); assay type: cell-based, Human; conditions: 1 μM 6-thio-dG for 14 days
Procedure: (§2) FIGS. 2a to 2c show NRAS^mut melanoma cells (FIG. 2a), BRAF-V600E/NRAS mutant cells derived from melanoma patients resistant to BRAF/MEK inhibitors (FIG. 2b), or non-transformed melanocytes and fibroblasts (FIG. 2c) were treated with 6-thio-dG for 7 days. Cell viability was measured by Alamar Blue assay and calculated relative to DMSO-treated cells. […] Cell death was assessed by PSVUe staining. Percent of apoptotic cells is shown. […] Mean TRF length expressed as kilobase pairs is indicated at the bottom. […] FIG. 2g provides a bar graph showing that DNA damage was assessed by γH2AX staining. Data represent average from three independent experiments ±SEM. *p<0.05; **p<0.01; ***p<0.005 in unpaired Student's t-test. As presented in FIG. 2h, mice bearing established WM3000 or M93-047 NRAS^mut tumors were treated with vehicle control or 6-thio-dG (2.5 mg/kg i.p; q.d). Tumor volume was measured and average tumor volume (n=4) ±SEM was plotted vs. time.
Genomic DNA was prepared using Wizard genomic DNA purification kit (Promega) following manufacturer's instruction. […] The images were analyzed with Phosphorimager, visualized by Typhoon 9410 Imager (GE Healthcare), and processed with ImageQuant 5.2 software (Molecular Dynamics).

[4] = tested on: non-transformed primary human fibroblasts; test: Cell viability, Alamar Blue assay; assay type: cell-based; conditions: telomerase negative cells, 7 days
Procedure: as §2, with “As presented in FIG. 2h, mice bearing established WM3000 or M93-047 NRAS^mut tumors were treated with vehicle control or 6-thio-dG (2.5 mg/kg i.p; q.d).” left out
as §1

[5] = tested on: non-transformed primary human melanocytes; test: Cell viability, Alamar Blue assay; assay type: cell-based; conditions: telomerase negative cells, 7 days
Procedure: as §2, with “As presented in FIG. 2h, mice bearing established WM3000 or M93-047 NRAS^mut tumors were treated with vehicle control or 6-thio-dG (2.5 mg/kg i.p; q.d).” left out
as §1

## Nc1nc2c(ncn2[C@H]2C[C@H](O)[C@@H](CO)O2)c(=S)[nH]1 [6-thio-dG, 6-thio-2′-deoxyguanosine]
[1]
  cell death: did not induce cell death
[2]
  GPX1 mRNA levels: upregulation
  SOD2 mRNA levels: upregulation
  UCP2 mRNA levels: upregulation
[3]
  telomere length (mean TRF): without evidence for significant telomere shortening
[4]
  cell viability: did not significantly affect
[5]
  cell viability: did not significantly affect
